According to ChEMBL document CHEMBL4831488, “Design, synthesis, docking, molecular dynamics and bioevaluation studies on novel N-methylpicolinamide and thienopyrimidine derivatives with inhibiting NF-κB and TAK1 activities: Cheminformatics tools RDKit applied in drug design” (Eur J Med Chem, 2021):
pIC50: −log10 of the molar value.

Tests used:
[1] = system: MDA-MB-231; assay: Cytotoxicity against human MDA-MB-231 cells assessed as inhibition of cell growth at 20 uM measured after 72 hrs by MTT assay relative to control; assay type: functional
[2] = system: HCT-116; assay: Cytotoxicity against human HCT-116 cells assessed as inhibition of cell growth at 20 uM measured after 72 hrs by MTT assay relative to control; assay type: functional
[3] = system: A549; assay: Cytotoxicity against human A549 cells assessed as inhibition of cell growth at 20 uM measured after 72 hrs by MTT assay relative to control; assay type: functional
[4] = system: A549; assay: Cytotoxicity against human A549 cells assessed as inhibition of cell growth measured after 72 hrs by MTT assay; assay type: functional, cell-based; conditions: for pIC50: Homo sapiens, A549, 72 h, read-out: IC50; for IC50: a549
[5] = system: MAP3K7/TAB1 [+]; assay: Inhibition of Tak1/Tab1 (unknown origin) assessed as inhibition of Tak1 kinase activity preincubated for 30 mins followed by addition of MBP protein and ATP and measured after 2 hrs by ADP-Glo kinase assay
[6] = system: HCT-116; assay: Cytotoxicity against human HCT-116 cells assessed as inhibition of cell growth measured after 72 hrs by MTT assay; assay type: functional, cell-based; conditions: HCT-116, 72 h
[7] = target: TAK1-TAB1 fusion protein (Homo sapiens, UniProt O43318); assay: Inhibition of Tak1/Tab1 (unknown origin) assessed as inhibition of Tak1 kinase activity preincubated for 30 mins followed by addition of MBP protein and ATP and measured after 2 hrs by ADP-Glo kinase assay
Sequence of TAK1-TAB1 fusion protein (O43318 whole entry, looked up, the tested form may be a part): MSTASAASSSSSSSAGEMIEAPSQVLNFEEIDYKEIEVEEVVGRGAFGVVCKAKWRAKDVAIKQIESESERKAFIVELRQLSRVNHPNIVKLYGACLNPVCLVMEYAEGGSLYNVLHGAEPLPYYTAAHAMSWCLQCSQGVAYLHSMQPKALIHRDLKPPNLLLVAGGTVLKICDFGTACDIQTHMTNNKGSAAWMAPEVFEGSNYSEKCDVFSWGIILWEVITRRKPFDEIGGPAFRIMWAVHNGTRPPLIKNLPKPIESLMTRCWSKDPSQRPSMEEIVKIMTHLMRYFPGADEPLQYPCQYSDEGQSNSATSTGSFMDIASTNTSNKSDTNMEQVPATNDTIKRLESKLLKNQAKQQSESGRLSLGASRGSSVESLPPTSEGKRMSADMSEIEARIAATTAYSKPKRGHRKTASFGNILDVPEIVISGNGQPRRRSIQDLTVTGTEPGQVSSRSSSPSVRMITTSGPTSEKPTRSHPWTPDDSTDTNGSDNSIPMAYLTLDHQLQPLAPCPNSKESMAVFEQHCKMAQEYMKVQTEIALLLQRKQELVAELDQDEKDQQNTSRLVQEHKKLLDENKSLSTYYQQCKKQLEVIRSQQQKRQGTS

Row | IC50 [5] | pIC50 [7] | Structure (SMILES) | inhibition at 20 µM [1] [%] | inhibition at 20 µM [2] [%] | inhibition at 20 µM [3] [%] | pIC50 [4] | pIC50 [6] | IC50 [4]
1 | Not Active |  | CN(c1ccc(Oc2ncnc3ccsc23)cc1)c1nccc(N2CCCC2)n1 | 38 | 63.5 | 63.9 | 5.19 |  | 
2 |  | 5.90 | CNC(=O)c1cc(Oc2ccc(Nc3nccc(N4CCc5ccccc5C4)n3)cc2)ccn1 | 41.2 | 31.2 | 59.6 | 5.50 | 4.80 | 
3 |  |  | c1cc(N2CCCC2)nc(Nc2ccc(Oc3ncnc4sccc34)cc2)n1 | 24.7 | 54.4 | 61 | 5.09 |  | 
4 |  | 5.16 | c1ccc2c(c1)CCN(c1ccnc(Nc3ccc(Oc4ncnc5sccc45)cc3)n1)C2 | 26.8 | 18.1 | 34 | 5.17 |  | 
5 |  |  | c1ccc2c(c1)CCN2c1ccnc(Nc2ccc(Oc3ncnc4sccc34)cc2)n1 | 9.95 | -0.62 | 2.81 |  |  | Not Active
6 |  |  | CN(C)c1ccc(C(=O)Nc2ccc(Oc3ncnc4ccsc34)cc2)cc1 | 10.4 | 53.9 | 50.8 | 4.69 |  | 
7 |  |  | CN(c1ccc(Oc2ncnc3ccsc23)cc1)c1nccc(N2CCc3ccccc3C2)n1 | 30.2 | 58.3 | 69.9 | 4.79 |  | 
8 |  |  | c1ccc(CNc2ccc(Oc3ncnc4ccsc34)cc2)cc1 | 3.72 | -12.2 | 30.6 |  |  | Not Active
9 |  |  | c1cc(N2CCCC2)nc(Nc2ccc(Oc3ncnc4ccsc34)cc2)n1 | 14.3 | 22.2 | 23.2 |  |  | Not Active
10 |  |  | c1ccc2c(c1)CCN(c1ccnc(Nc3ccc(Oc4ncnc5ccsc45)cc3)n1)C2 | 15.4 | 40.9 | 54.9 | 4.77 |  | 
11 |  | 5.87 | CNC(=O)c1cc(Oc2ccc(Nc3nccc(N4CCCC4)n3)cc2)ccn1 | 46.6 | 66.4 | 59.6 | 5.47 | 5.85 | 
12 |  |  | c1cc(N2CCCCC2)nc(Nc2ccc(Oc3ncnc4ccsc34)cc2)n1 | 45.7 | 61.5 | 59.9 | 5.11 |  | 
13 |  |  | CCN(CC)c1ccc(C(=O)Nc2ccc(Oc3ncnc4ccsc34)cc2)cc1 | 38.3 | 37.9 | 63.8 | 5.10 |  | 
14 |  |  | CN(c1ccc(Oc2ncnc3ccsc23)cc1)c1nccc(N2CCCCC2)n1 | 49.7 | 66.2 | 65.7 | 5.08 |  | 
15 |  |  | CN(c1ccc(Oc2ncnc3sccc23)cc1)c1nccc(N2CCCCC2)n1 | 29.3 | 52.1 | 51.9 | 5.06 |  | 
16 |  |  | CNC(=O)c1cc(Oc2ccc(Nc3nccc(N4CCOCC4)n3)cc2)ccn1 | 34.1 | 48.3 | 66.3 | 5.13 | 4.89 | 
17 |  |  | c1cc(N2CCOCC2)nc(Nc2ccc(Oc3ncnc4sccc34)cc2)n1 | 14.5 | 37.5 | 36.7 | 5.03 |  | 
18 |  |  | CN(c1ccc(Oc2ncnc3ccsc23)cc1)c1nccc(N2CCc3ccccc32)n1 | 38.2 | 57.8 | 58.2 | 4.69 |  | 
19 |  | 5.60 | c1cc(N2CCCCC2)nc(Nc2ccc(Oc3ncnc4sccc34)cc2)n1 | 40.4 | 66.3 | 64.8 | 5.40 |  | 
20 |  | 4.92 | CN(c1ccc(Oc2ncnc3sccc23)cc1)c1nccc(N2CCc3ccccc3C2)n1 | 24.3 | 57.7 | 68.4 | 5.19 |  | 
21 |  |  | CN(c1ccc(Oc2ncnc3sccc23)cc1)c1nccc(N2CCc3ccccc32)n1 | 17.6 | 20 | 29.4 | 4.71 |  | 
22 |  | 4.80 | c1cc(N2CCOCC2)nc(Nc2ccc(Oc3ncnc4ccsc34)cc2)n1 | 23 | 53.1 | 57.9 | 5.16 |  | 
23 |  |  | CN(c1ccc(Oc2ncnc3sccc23)cc1)c1nccc(N2CCCC2)n1 | 31 | 42.2 | 55.5 | 4.82 |  | 
